Reference: patent US9364454B2, “Anti-inflammatory actions of neuroprotectin D1/protectin D1 and its natural stereoisomers” (The Brigham and Women's Hospital, Inc., priority 2005, dated 2016)
“Also recorded” adds a separate entry of the source. Like-named read-outs stand apart in the source and are kept apart here.

Tests used:
male FvB mice [1] = experiment: Airway responsiveness to aerosolized methacholine in OVA-sensitized/challenged mice; assay type: in vivo, mouse
Method: (§1) Five to seven week old male FvB mice (Charles River Laboratories) were housed in isolation cages under viral antibody-free conditions. Mice were fed a standard diet (Laboratory Rodent Diet 5001, PMI Nutrition International) that contained no less than 4.5% total fat with 0.26% omega-3 fatty acids and <0.01% C20:4. After Harvard Medical Area IRB approval (Protocol #02570), mice were sensitized with intraperitoneal injections of ovalbumin (OVA) (Grade III; Sigma Chemical Co.) (10 μg) plus 1 mg aluminum hydroxide (ALUM) (J.T. Baker Chemical Co.) as adjuvant in 0.2 ml PBS on days 0 and 7. On days 14, 15, 16 and 17, the mice received PD1 (2, 20 or 200 ng) (a product of biogenic synthesis (52)) or PBS with 1.6 mM CaCl2 and 1.6 mM MgCl2 (0.1 ml) by intravenous injection 30 min prior to an aerosol challenge containing either PBS or 6% OVA for 25 min/day. Matching experiments were performed with 20 ng PD1 prepared by total organic synthesis (62).
(§2) On day 18, 24 h after the last aerosol challenge, either airway responsiveness to aerosolized methacholine (0, 20, 50 and 75 mg, 10 sec) was measured, bilateral bronchoalveolar lavage (BAL) (2 aliquots of 1 ml PBS plus 0.6 mM EDTA) was performed or tissues were harvested for histological analysis. Lung resistance was measured using a Flexivent ventilator (SciReq). Resistance was measured as a function of time for each animal, and peak and average values for each dose of methacholine were recorded. No BAL or histological analysis was performed on those animals undergoing airway hyper-responsiveness or lipid extraction studies.

[2] = test system: human PMN transmigration across endothelial cells; experiment: Human PMN transmigration across HMEC monolayers, LTB4-induced; assay type: cell-based
Method: PMN were freshly isolated from whole blood obtained by venipuncture from healthy human donors (who denied taking medication for 2 weeks prior to donation; BWH protocol no. 88-02642) and anti-coagulated with acid citrate dextrose as in (40, 41). Briefly, plasma and mononuclear cells were removed by aspiration from the buffy coat after centrifugation (400 g; 20 min) at room temperature. Histopaque (density 1.077) was from Sigma-Aldrich (St. Louis, Mo.). RBCs were sedimented using 2% gelatin, and residual RBCs were removed by lysis in ice-cold NH4Cl buffer. The cell suspensions were >90% PMN as determined by light microscopic evaluation. PMN were suspended at 5×10^7 cells/ml in HBSS with 10 mM Hepes, pH 7.4, and without Ca^2+ or Mg^2+ (Sigma-Aldrich, St. Louis, Mo.). PMN were used within 2 hours of their isolation.
Human Microvascular Endothelial Cells (HMEC; a gift from Francisco Candal of the Centers for Disease Control, Atlanta, Ga.) were obtained as primary cultures. For preparation of experimental HMEC monolayers, confluent endothelial cells were grown on 0.33 cm^2 ring-supported polycarbonate filters (5 μm pore size; Costar Corp., Cambridge, Mass.) in the apical-to-basolateral direction. Cells were grown for ˜1 week prior to transmigration experiments.
Transmigration was conducted essentially as in ref. (41). PMN were incubated with either vehicle-containing buffer or compound for 15 minutes at 37° C. A chemotactic gradient was established by placing HMEC inserts that had been washed in HBSS with Ca^2+ and Mg^2+ (denoted +/+) in 10^−8M LTB4 in the lower chambers. Neutrophils (10^6 cells) were added to 50 μl HBSS +/+ in the upper chambers and cells were incubated at 37° C. for 90 min. Transmigrated PMN were quantified by assessing the PMN azurophilic marker myeloperoxidase and a calibration curve. PMN were lysed by the addition of Triton X-100 to a final concentration of 0.5%. The samples were acidified with citrate buffer (final concentration 100 mM, pH 4.2). An aliquot of each sample was added to an equal volume of ABTS solution (1 mM ABTS [2′-azino-bis(3-ethylbenzo-thiazoline-6-sulfonic acid)], 0.03% H2O2, 100 mM sodium citrate buffer, pH 4.2) in a 96-well plate. The resulting color was monitored using a plate reader at 405 nm and a calibration curve for cell number.

male FvB mice [3] = assay type: in vivo
Method: as §1
as §2, with “No BAL or histological analysis was performed on those animals undergoing airway hyper-responsiveness or lipid extraction studies.” left out
Murine lungs were fixed in 10% buffered formalin and paraffin embedded for hematoxylin and eosin and periodic acid Schiff staining (Sigma Chemical Co.). […] Three fields per slide were examined at 200× magnification for vessels, large airways and alveoli with EOS counted at 400× magnification in randomly assigned fields. […] Measurement of inflammatory mediators was determined in cell-free BAL fluid (BALF) (2000 g, 10 min) by sensitive and specific ELISAs, in tandem, for interleukin-5 (IL-5), IL-12, IL-13, PGD2 (R&D Systems), cysteinyl LTs, (Cayman Chemical Co.), and LXA4 (Neogen). […]

FVB male mice [4] = experiment: Acute inflammatory exudates: zymosan A murine peritonitis (leukocyte infiltration); assay type: in vivo, mouse
Method: Peritonitis was carried out using 6-8 week-old FVB male mice (Charles River Laboratories) fed laboratory Rodent Diet 5001 (Purina Mills) that were anesthetized with isoflurane, and compounds to be tested were administered intraperitoneally. […] Each compound tested or vehicle alone was suspended in 1 μl ethanol and mixed in sterile saline (120 μl). After intraperitoneal injections (either 2 or 4 hours of acute inflammation), the mice were sacrificed in accordance with the Harvard Medical Area Standing Committee on Animals protocol no. 02570, and peritoneal lavages were collected rapidly and placed in an ice bath (4° C.) for enumeration, differential counts, and further analysis.

male FvB mice [5] = experiment: PD1 given after aeroallergen challenge (days 18-20), BAL on day 21; assay type: in vivo, mouse
Method: In select experiments, animals were sensitized and aeroallergen challenged for four days prior to receiving PD1 (20 ng) or PBS by intravenous injection (0.1 ml) on days 18, 19 and 20. On day 21, bilateral BAL was performed.
Murine lungs were fixed in 10% buffered formalin and paraffin embedded for hematoxylin and eosin and periodic acid Schiff staining (Sigma Chemical Co.). Tissue morphometry was performed by a member (K. Haley) of the Lung Histopathology Core Laboratory at Brigham and Women's Hospital who was blinded to the experimental conditions prior to histological analyses. Three fields per slide were examined at 200× magnification for vessels, large airways and alveoli with EOS counted at 400× magnification in randomly assigned fields. Vessels were identified by perivascular smooth muscle, and large airways were identified by at least ½ their diameter either cuboidal or columnar epithelia. Measurement of inflammatory mediators was determined in cell-free BAL fluid (BALF) (2000 g, 10 min) by sensitive and specific ELISAs, in tandem, for interleukin-5 (IL-5), IL-12, IL-13, PGD2 (R&D Systems), cysteinyl LTs, (Cayman Chemical Co.), and LXA4 (Neogen). Cells in BALF were resuspended in PBS, enumerated by hemocytometer, and concentrated onto microscope slides by cytocentrifuge (STATspin) (265 g). […]

FVB male mice [6] = details: cited from earlier work

CC/C=C\C[C@H](O)\C=C/C=C/C=C/[C@H](O)C/C=C\C/C=C\CCC(=O)O [PD1, 10R,17S-dihydroxy-docosa-4Z,7Z,11E,13E,15Z,19Z-hexaenoic acid]
shape of dose response, protection on airway hyper-responsiveness (male FvB mice [1]; 2, 20, 200 ng): bell-shaped dose response with maximal protection
log ED200 for the mean airway resistance (male FvB mice [1]; 2, 20 and 200 ng, compared with vehicle): significantly increased
airway hyper-responsiveness: peak and average lung resistance in response to methacholine (male FvB mice [1]; PD1 0-200 ng i.v. prior to OVA challenge): decreased both peak and average lung resistance; also recorded: dampened; also recorded: reduces airway hyper-responsiveness
lung elastance or compliance (male FvB mice [1]; following allergen challenge (data not shown)): no significant changes
airway responses of control animals that received PBS rather than allergen (male FvB mice [1]; mouse, in vivo): no significant impact
inhibition of PMN transmigration ([2]; 1.0 nM, in response to leukotriene B4): 30%
attenuation of human neutrophil transmigration ([2]; 10 nM, LTB4 10^-8 M, 90 min): ~50%
reduction of PMN transmigration ([2]; 10-100 nM, in vitro): 35-45%
highest degree of inhibition of neutrophil transmigration observed ([2]; HMEC monolayers, neutrophils from >5 separate donors, each experiment): ≤ 50%
effect on LTB4-induced PMN transmigration (in words) ([2]; compound 15 min, LTB4 10^-8 M 90 min): reduced PMN transmigration; also recorded: inhibited LTB4-induced PMN migration; also recorded: stereoselectively reduces PMN transmigration in vitro
EOS and Lymphs in the peribronchial regions and airspaces (histology) (male FvB mice [3]; 2, 20 or 200 ng i.v., versus vehicle): substantially less EOS and Lymphs
EOS tissue infiltration around vessels and in large and peripheral airways (morphometry) (male FvB mice [3]; PD1 i.v. prior to challenge): significant decreases
EOS trafficking (male FvB mice [3]; as little as 2 ng of PD1): reduced
rank order of potency (FVB male mice [4]; 0.1 ng dose): Compound VI>>PD1>10S,17S-DT (the double dioxygenation product)>the Δ15-trans-PD1>>Compound V
activity on PMN infiltration (in words) (FVB male mice [4]; 1 ng/mouse dose): striking inhibition of PMN infiltration
PMN infiltration when given after initiation of inflammation (in words) (FVB male mice [4]; 1 ng/mouse i.p. 2 h after zymosan A, lavage at 4 h): diminished infiltration of PMN; also recorded: reduces PMN infiltration; also recorded: reduced PMN infiltration after initiation (2 h) of inflammation
inhibition of PMN infiltration (FVB male mice [4]; 1 ng/mouse, peritonitis): ~40%
inhibition of PMN infiltration (FVB male mice [4]; 10 ng and 100 ng doses (maintained)): ~40%
kind of joint anti-inflammatory action of PD1 and RvE1 (FVB male mice [4]; 10 ng/mouse i.p. of either or both, 2 h): additive rather than synergistic
PMN infiltration, PD1 and RvE1 administered together (in words) (FVB male mice [4]; 10 ng/mouse i.p., exudates at 2 h): reduced the infiltration of PMN
PMN infiltration (in words) (FVB male mice [4]; 10 ng/mouse, 4 h after injection (FIG. 9)): reduced PMN infiltration; also recorded: Statistically different from *zymosan A-injected mice
rank order of potency (FVB male mice [4]; 1-10 ng dose): PD1≈PD1 methyl ester>>Δ15-trans PD1>10S,17S-diHDHA (isomer I)
anti-inflammatory potency in vivo, PMN infiltration (in words) (FVB male mice [4]; dose range tested (FIG. 6), lavage at 2 h): dramatically reduced the infiltration of PMN into the peritoneum; also recorded: more potent than the dioxygenation product; also recorded: potent regulator of PMN infiltration in vivo
blocking of further PMN infiltration (FVB male mice [4]; given 2 h after zymosan A challenge): > 90%
recruitment of monocytes and lymphocytes to exudates (in words) (FVB male mice [4]; peritonitis, differential counts): increased the non-phlogistic recruitment of monocytes and lymphocytes; also recorded: regulated both monocyte and lymphocyte traffic
numbers of total leukocytes, Eos and Lymphs in BALFs (male FvB mice [5]; 20 ng iv once a day for three days after challenge, day 21): significant decrements
resolution of allergic airway inflammation (in words) (male FvB mice [5]; PD1 treatment after aeroallergen challenge): has the capacity to accelerate resolution of allergic airway inflammation; also recorded: promoted the resolution of airway inflammation; also recorded: promotes resolution of allergen-driven leukocytes; also recorded: markedly accelerated the resolution of airway inflammation
inhibition of PMN infiltration (FVB male mice [6]; 100 ng/mouse, i.v., earlier experiments (ref 1)): ~40%
apparent maximal response, reduction of PMN infiltration (FVB male mice [6]; doses as low as 100 ng/mouse (ref 1)): ~50%
potency versus indomethacin in reducing PMN infiltration (FVB male mice [6]; i.v., earlier experiments (ref 1)): more potent than indomethacin
